Results published in patent US12161089B2, “Parasiticidal collar comprising isoxazoline compounds” (Boehringer Ingelheim Animal Health USA Inc., priority 2020, dated 2024).

Tests used:
[1] = Isoxazoline compounds in dog hair; assay type: in vivo; conditions: hair collected on Day 110 from 5 areas, PVC collars, FIG. 6
Excerpt: Hair samples from each dog were collected on Day 110 from 5 different areas: (1) central thorax, (2) lower back/caudal region, (3) right thorax, (4) left thorax, and […] top of neck/base of skull above collar site. Suitable bioanalytical methods were used for analysis of the three isoxazoline compounds in dog hair. […] Results for the other two isoxazoline compounds Ia and (S)-Ia are very similar.

[2] = Plasma drug concentrations in dogs wearing PVC based isoxazoline collars; assay type: in vivo, dog; conditions: 11% active, FIG. 5
Experimental: PK data: Blood samples from all the dogs were taken periodically and drug concentrations in the plasma were analyzed (depicted in FIG. 5). […] In other words, these compounds are likely acting by a systemic mechanism, even though they are applied in a topical collar dosage form. These PK data appear also to correlate with the flea and tick efficacy data in Table 6 and 7 (e.g., compound (S)-Ia is the best, (S)-Id is the second, and Ia the third).

Ctenocephalides felis = experiment: In-vitro flea exposure effectiveness (contact with collar strips or treated filter papers); conditions: filter paper 21 cm^2 loaded with 500 μL of 10 mg/mL in acetone, 24 (±1) hours; for Geometric Mean No. Live Fleas: 3 vials; for Percentage Reduction Live Fleas: versus acetone only control; for Vial 1 # Live Fleas / Vial 2 # Live Fleas / Vial 3 # Live Fleas: approximately 20 fleas
Experimental: The in-vitro susceptibility of Ctenocephalides felis exposed to treated filter papers and to external device compositions (antiparasitic collar) containing isoxazoline active agents (S)-Ia, (S)-Id and (Ia) was determined, wherein the collars comprise a polyvinyl chloride (PVC) matrix or a polybutylene succinate (PBS) matrix.
To determine the in-vitro susceptibility of Ctenocephalides felis exposed to treated filter papers or to the collars compositions comprising the isoxazoline active agent, approximately 20 fleas were transferred to vials containing either the collars or filter papers in accordance with the test groups outlined in Table 3. On Day 0, approximately 20 fleas were placed in 27×55 mm, 5 dram glass vials containing the collars comprising the active agent as outlined in Table 3 or in 60 mm×40 mm glass vials containing treated filter papers. The filter papers tested in groups 9-12 were loaded with 500 μL of a 10 mg/mL solution containing the active agent dissolved in acetone. […] Test vials were placed in an environmental chamber at approximately 28° C. and approximately 80% RH.
The number of dead fleas in each vial were counted on Day 1 at 24 (±1) hours after initial exposure. Fleas were counted as dead if they were not able to maintain an upright posture.

SMILES	Level of the drug in dog hair, top of the neck (collar site) compared with other areas [1]	PK data, order of the compounds (correlating with flea and tick efficacy) [2]	Geometric Mean No. Live Fleas (Ctenocephalides felis)	Percentage Reduction Live Fleas (Ctenocephalides felis)	Vial 1 # Live Fleas (Ctenocephalides felis)	Vial 2 # Live Fleas (Ctenocephalides felis)	Vial 3 # Live Fleas (Ctenocephalides felis)	Isoxazoline compound levels in hair throughout bodies of the dogs [1]
O=C(CNC(=O)c1ccc(C2=NOC(c3cc(Cl)cc(C(F)(F)F)c3)(C(F)(F)F)C2)c2ccccc12)NCC(F)(F)F (centres unmarked) [(Ia), 4-[5-[3-chloro-5-(trifluoromethyl)phenyl]-4,5-dihydro-5-(trifluoromethyl)-3-isoxazolyl]-N-[2-oxo-2-[(2,2,2-trifluoroethyl)amino]ethyl]-1-naphthalanecarboxamide]	very similar	the third	19.6	3.3%	19	21	19	
O=C(CNC(=O)c1ccc(C2=NO[C@@](c3cc(Cl)cc(C(F)(F)F)c3)(C(F)(F)F)C2)c2ccccc12)NCC(F)(F)F [(S)-Ia]	very similar	the best	19.0	6.5%	19	20	18	
O=C(CNC(=O)c1ccc(C2=NO[C@@](c3cc(Cl)c(F)c(C(F)(F)F)c3)(C(F)(F)F)C2)c2ccccc12)NCC(F)(F)F [(S)-Id]	highest level of the drug	the second						detectable
